The values that follow come from patent US20210255195A1, “HIGH PRECISION SPECTRAL FRET ASSAYS” (Regents of the University of Minnesota, priority 2017, published 2021).

The structures appear in SMILES notation.

Data set [1] relates to endoplasmic reticulum calcium (D1ER sensor). As to the kind of experiment: D1ER cameleon calcium FRET sensor in HEK293 cells (ER calcium depletion), spectral mode. The class given is cell-based, human. As to conditions: for T50 (rate of calcium depletion): saturating drug concentrations, Hill fit of time course. On the procedure:
Investigation of a CFP and YFP FRET pair was evaluated with the well-known cameleon calcium sensor, in which the calmodulin-binding (M13) domain of myosin light chain kinase (MLCK) and calcium-binding domain of calmodulin are fused together, and located between two fluorescence proteins (eCFP/mCitrine). These calcium sensors have allowed cellular [Ca^2+] to be monitored more directly and reliably than using calcium-sensitive dyes. The endoplasmic reticulum-targeted cameleon sensor (D1ER) was selected because it is known to be sensitive to the SERCA inhibitors thapsigargin, CPA, and BHQ. Instead of detecting direct ligand binding, as in the 2CS studies reported above, the D1ER sensor can be used to monitor changes in ER calcium level. Upon SERCA inhibition, calcium is no longer pumped into the ER, leading to calcium depletion through various mechanisms including IP3-gated receptors and ryanodine receptors. D1ER senses these changes as calcium binding leads to a conformational rearrangement of the biosensors, increasing FRET between CFP and YFP. Therefore, calcium depletion due to SERCA inhibition is detected as a decrease in FRET.
A HEK293 stable clone with constitutive expression of the D1ER cameleon calcium sensor was generated using G418 antibiotic selection. […] Cells were harvested and dispensed into 384-well plates containing the same concentrations of thapsigargin, CPA, and BHQ, as previously evaluated with 2CS (FIG. 9). D1ER FRET was monitored only in spectral mode, because the CFP donor cannot be excited effectively by the 473 nm laser used in lifetime mode. ER calcium was monitored by repeatedly scanning the 384 well plate at three-minute intervals over a 120-minute period. […]
After resuspension and dilution in PBS, the cells were constantly and gently stirred using a magnetic stir bar at room temperature, keeping the cells in suspension and evenly distributed to avoid clumping. […] Concentration-response curves (CRC) of the FRET hits were assessed at multiple time points by repeatedly scanning the 384-well plates. […] The D1ER calcium sensor monitored changes in endoplasmic reticulum [Ca^2+] […] The methods and protocols for the D1ER cells were identical to those for 2CS, with the exception that they were evaluated only in spectral mode, and the 384-well plates containing compound CRCs were scanned every three minutes for two-hours.
SERCA malfunction can result in decreased ATPase activity and/or calcium pumping efficiency. ER calcium content was monitored over time using the endoplasmic-localized cameleon calcium FRET sensor (D1ER). […] Briefly, D1ER FRET changes were monitored over time by repeatedly (every 3 minutes) scanning a 384-well plate containing varying concentrations of the 2CS FRET hits. D1ER cells were assessed immediately after compound incubation. […]

Data set [2] concerns the target two-color SERCA (2CS) biosensor (SERCA2a) (UniProt P16615). As to the kind of experiment: 2CS FRET biosensor in living HEK293 cells, spectral mode (spectral unmixing plate reader). It is filed as cell-based, human. To be noted: for 2CS FRET hit identification: NCC screen, reproducible and dose-dependent FRET decrease.
Method: HEK293 cells were maintained in phenol-red-free DMEM from Gibco (Waltham, Mass.) supplemented with 2 mM GlutaMAX (Gibco), 10% fetal bovine serum (FBS) from Atlanta Biologicals (Laweranceville, Ga.), and 1 IU/mL penicillin/streptomycin (Gibco) and grown at 37° C. with 5% CO2. Stable clones expressing the FRET biosensors and corresponding donor- and acceptor-labeled control cell lines were established as described previously [3]. Briefly, cells were transfected with the recombinant DNA following established protocols lipofectaimine 3000 from Invitrogen (Carlsbad, Calif.). 48 hours post transfection the cells were placed under G418 (500 μg/mL) from Sigma (St. Louis, Mo.), antibiotic selection, and plated to allow for the growth of single colonies. Clones were isolated 2-3 weeks after transfection and antibiotic selection. […] The cell lines were expanded in T225 flasks from Corning (Corning, N.Y.), harvested by treatment with Tryple (Invitrogen), washed three times in phosphate buffer solution (PBS) with no magnesium or calcium Thermo Fischer (Waltham, Mass.)) and centrifuged at 300 g, filtered using 70 μm cell strainers (Corning), and diluted to 10^6 cells/mL using an automated countess cell counter from Invitrogen. In studies with cyan and yellow fluorescent protein biosensors, transient transfections were performed. In these studies, cells were harvested and prepared as described above, 48 hours after transfection. Cell viability was assessed using trypan blue. […]
The observed fluorescence emission spectrum F(λ) was fitted by least-squares minimization to a linear combination of component spectra
where D is donor, A is acceptor, C is cell autofluorescence, and W is water Raman, and a, b, c, d are the weighting (scalar) coefficients determined from the fit. The fitted spectrum for each well was determined using least squares minimization with Matlab (Mathworks) to solve for the scalar coefficients.
For an intramolecular FRET sensor with a 1:1 ratio of donor D and acceptor A molecules, FRET efficiency (FRET) was determined from (Eq. 10).
A short description of data set [3]: Water Raman spectrum of compound-only wells (compound aggregation). The class given is physicochemical. As to conditions: dose-dependent.
From the text: The high sensitivity of spectral mode is shown by the fluorescence signal of the water Raman spectrum.
In data set [4] the target is SERCA2a (Homo sapiens, UniProt P16615). As to conditions: binding to SERCA2a, literature; cited from earlier work.
SERCA2a, sequence (P16615 1-997 isoform P16615-2, species assumed): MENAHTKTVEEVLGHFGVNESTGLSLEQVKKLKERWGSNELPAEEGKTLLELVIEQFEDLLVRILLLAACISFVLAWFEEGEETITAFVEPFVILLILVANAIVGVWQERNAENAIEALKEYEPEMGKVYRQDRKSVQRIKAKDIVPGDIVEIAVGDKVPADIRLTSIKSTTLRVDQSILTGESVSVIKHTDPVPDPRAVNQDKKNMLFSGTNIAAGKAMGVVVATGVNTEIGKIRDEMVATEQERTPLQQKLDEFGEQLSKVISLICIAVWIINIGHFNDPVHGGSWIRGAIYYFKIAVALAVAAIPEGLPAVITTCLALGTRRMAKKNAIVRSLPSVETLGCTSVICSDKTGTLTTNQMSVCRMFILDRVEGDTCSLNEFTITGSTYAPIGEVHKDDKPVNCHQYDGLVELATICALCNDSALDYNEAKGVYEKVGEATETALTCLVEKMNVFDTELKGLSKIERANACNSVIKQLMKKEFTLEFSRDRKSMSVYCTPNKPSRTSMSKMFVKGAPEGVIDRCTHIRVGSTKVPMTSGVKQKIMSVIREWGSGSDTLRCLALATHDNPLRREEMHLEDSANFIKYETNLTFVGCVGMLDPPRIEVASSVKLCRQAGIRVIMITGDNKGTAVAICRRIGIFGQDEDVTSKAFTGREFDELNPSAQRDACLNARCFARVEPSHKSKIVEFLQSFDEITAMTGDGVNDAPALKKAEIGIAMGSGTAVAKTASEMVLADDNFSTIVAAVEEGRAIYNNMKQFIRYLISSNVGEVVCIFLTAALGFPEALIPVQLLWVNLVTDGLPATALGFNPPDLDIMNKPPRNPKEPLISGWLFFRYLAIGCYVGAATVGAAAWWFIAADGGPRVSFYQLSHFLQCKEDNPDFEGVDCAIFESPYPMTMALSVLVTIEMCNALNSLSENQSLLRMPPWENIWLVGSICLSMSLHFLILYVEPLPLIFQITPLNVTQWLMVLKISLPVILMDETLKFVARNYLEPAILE
Data set [5] has as its target two-color SERCA (2CS) biosensor (SERCA2a) (UniProt P16615). As to the kind of experiment: 2CS FRET biosensor in living HEK293 cells, fluorescence lifetime mode. It is filed as cell-based, human. On the procedure:
HEK293 cells were maintained in phenol-red-free DMEM from Gibco (Waltham, Mass.) supplemented with 2 mM GlutaMAX (Gibco), 10% fetal bovine serum (FBS) from Atlanta Biologicals (Laweranceville, Ga.), and 1 IU/mL penicillin/streptomycin (Gibco) and grown at 37° C. with 5% CO2. Stable clones expressing the FRET biosensors and corresponding donor- and acceptor-labeled control cell lines were established as described previously. Briefly, cells were transfected with the recombinant DNA following established protocols lipofectaimine 3000 from Invitrogen (Carlsbad, Calif.). 48 hours post transfection the cells were placed under G418 (500 μg/mL) from Sigma (St. Louis, Mo.), antibiotic selection, and plated to allow for the growth of single colonies. Clones were isolated 2-3 weeks after transfection and antibiotic selection. The stability of each clone was assessed by flow cytometry and confocal microscopy (data not shown). The cell lines were expanded in T225 flasks from Corning (Corning, N.Y.), harvested by treatment with Tryple (Invitrogen), washed three times in phosphate buffer solution (PBS) with no magnesium or calcium Thermo Fischer (Waltham, Mass.)) and centrifuged at 300 g, filtered using 70 μm cell strainers (Corning), and diluted to 10^6 cells/mL using an automated countess cell counter from Invitrogen. In studies with cyan and yellow fluorescent protein biosensors, transient transfections were performed. In these studies, cells were harvested and prepared as described above, 48 hours after transfection. Cell viability was assessed using trypan blue.
Cells were dispensed using a Multidrop Combi liquid dispenser from Thermo Fischer (Pittsburgh, Pa.) at a density of 10^6/mL. Compounds were diluted in DMSO and dispensed either using a Mosquito liquid handeler from TTP Labtech (Melbourn, UK) or a Mantis liquid dispenser from Formulatrix (Bedford, Mass.). The known SERCA inhibitors thapsigargin (TG, Sigma), 1,4-dihydroxy-2,5-di-tert-butylbenzene (BHQ) from Tocris (Minneapolis, Minn.), and cyclopiazonic acid (CPA, Tocris) were diluted at 50× concentrations and subsequently serially diluted in 96-well mother plates prior to liquid dispensing. […]
In its spectral unmixing plate reader (SUPR) mode, the instrument provides direct high-throughput detection of the complete fluorescence emission spectrum, (emission vs wavelength), with excitation provided by a 473 nm continuous wave laser. Spectra are recorded using a grating-based fiber optic input spectrograph equipped with linear-array CCD detector (Sony ILX511B). The recorded wavelength range in these experiments spanned the entire visible spectrum, but only the 400-700 nm range was used in the data analysis. In lifetime mode, the full nanosecond-resolved fluorescence emission waveform is acquired following excitation with a 473 nm pulsed microchip laser. […]
Fluorescence decay waveforms for lifetime determination, were detected directly as previously described. […] A full fluorescence decay waveform was detected in response to each laser pulse over a 128 ns time window, using a photomultiplier module from Hamamatsu (Cat #H10720-210), and a proprietary transient digitizer from Fluorescence Innovations (Minneapolis, Minn.). A 488 nm long-pass filter from Semrock (Rochester, N.Y.) and 517/20 bandpass emission filter (lifetime mode), were used, ensuring that only emission from the GFP donor was detected. […]

The test system of data set [6] is cytosolic calcium. To be noted: literature; cited from earlier work.

On to `CC(C)(C)c1cc(O)c(C(C)(C)C)cc1O` [BHQ, 1,4-dihydroxy-2,5-di-tert-butylbenzene], for which the “T50 (rate of calcium depletion)” value in data set [1] was 17.4 min.
With `c1ccc(-c2ccc(C(c3ccccc3)n3ccnc3)cc2)cc1` (stereo not shown) [bifonazole], in data set [2], the “2CS FRET hit identification” value is “hits”.
The same measure, in the same setting: to `Clc1ccccc1C(c1ccccc1)(c1ccccc1)n1ccnc1` [clotrimazole] belongs “hit”.
In the case of `Clc1ccc(COC(Cn2ccnc2)c2ccc(Cl)cc2Cl)c(Cl)c1` (stereo not shown) [miconazole], the “2CS FRET hit identification” value in data set [2] is recorded as “hits”. In data set [3], the “Raman scattering, compound aggregation” value is “decreases inelastic light scattering (Raman band)”. Also, in data set [1] (over 120 minutes), the ER calcium depletion entry is recorded as “largest amount of ER calcium depletion”.
For orientation: Ki means a dissociation constant, usually derived from enzyme kinetics or from competition with a known ligand. Consider `C/C=C(/C)C(=O)O[C@H]1C(C)=C2[C@H]([C@@H]1OC(=O)CCCCCCC)[C@@](C)(OC(C)=O)C[C@H](OC(=O)CCC)[C@@]1(O)[C@H]2OC(=O)[C@@]1(C)O` [thapsigargin], for which the “reduction in FRET” value in data set [2] (50 nM thapsigargin, spectral mode, average of 32 wells) is 8%. Further, the Ki in data set [4] was 2 nM. The EC50 in data set [1] (Homo sapiens, HEK293, 2 h, ER calcium depletion at 120 min time point, read-out: equilibrium constant of sigmoidal D1ER FRET response) worked out at 1.97 nM; in data set [5] (read-out: EC50 of closed state mole fraction, global lifetime analysis, two-state model), 2.2 nM. In data set [1], the “T50 (rate of calcium depletion)” value was determined as 9.5 min. Besides, in data set [5] (50 nM thapsigargin, lifetime mode, versus donor-only control), the “reduction in FRET efficiency” value is reported as 6%. In addition, the “2CS structural equilibrium between open and closed states” value is “shifts this equilibrium substantially toward the open state” in data set [5] (global lifetime analysis); “greatly increasing the population of the more open and disordered structural state” in data set [5] (global lifetime analysis, listed as Thapsigargin). In data set [5] (saturating concentration, 50 nM), the “increase in the GFP lifetime” value was determined as 200 picosecond.
Regarding `Oc1cc(Cl)ccc1Oc1ccc(Cl)cc1Cl` [triclosan], in data set [6], the cytosolic calcium result is “increase cytosolic calcium”.
